Results: ChEMBL document CHEMBL1275392, “Assessment of chemoselective neoglycosylation methods using chlorambucil as a model” (2010)

What was measured:
Format in all cases: functional
PC-3 = experiment: Growth inhibition of human PC3 cells after 7 days by celltiter-glo assay; details: PC-3, 168 h
NCI/ADR-RES = experiment: Growth inhibition of human NCI/ADR-RES cells at 10 uM after 7 days by celltiter-glo assay; details: 168 h, read-out: GI
Malme-3M = experiment: Growth inhibition of human MALME-3M cells after 7 days by celltiter-glo assay; details: 168 h
M14 = experiment: Growth inhibition of human M14 cells after 7 days by celltiter-glo assay; details: M14, 168 h
MOLT-4 = experiment: Growth inhibition of human MOLT4 cells after 7 days by celltiter-glo assay; details: MOLT-4, 168 h
DU-145 = experiment: Growth inhibition of human DU145 cells after 7 days by celltiter-glo assay; details: DU-145, 168 h
LOX IMVI = experiment: Growth inhibition of human LOXIMVI cells after 7 days by celltiter-glo assay; details: 168 h
MDA-MB-231 = experiment: Growth inhibition of human MDA-MB-231 cells after 7 days by celltiter-glo assay; details: MDA-MB-231, 168 h
OVCAR-4 [1] = experiment: Growth inhibition of human OVCAR4 cells at 10 uM after 7 days by celltiter-glo assay; details: OVCAR-4, 168 h, read-out: GI
HCT-15 [2] = experiment: Ratio of compound GI50 to chlorambucil GI50 for human HCT15 cells
MDA-MB-468 = experiment: Growth inhibition of human MDA-MB-468 cells at 10 uM after 7 days by celltiter-glo assay; details: MDA-MB-468, 168 h, read-out: GI
SF-268 [3] = experiment: Growth inhibition of human SF268 cells at 10 uM after 7 days by celltiter-glo assay; details: SF-268, 168 h, read-out: GI
SF-295 = experiment: Growth inhibition of human SF295 cells after 7 days by celltiter-glo assay; details: SF-295, 168 h
ACHN [4] = experiment: Growth inhibition of human ACHN cells after 7 days by celltiter-glo assay; details: 168 h
OVCAR-8 = experiment: Growth inhibition of human OVCAR8 cells at 10 uM after 7 days by celltiter-glo assay; details: OVCAR-8, 168 h, read-out: GI
SF-539 = experiment: Growth inhibition of human SF539 cells after 7 days by celltiter-glo assay; details: SF-539, 168 h
NCI-H460 = experiment: Growth inhibition of human NCI-H460 cells at 10 uM after 7 days by celltiter-glo assay; details: NCI-H460, 168 h, read-out: GI
KM12 = experiment: Growth inhibition of human KM12 cells at 10 uM after 7 days by celltiter-glo assay; details: KM12, 168 h, read-out: GI
SK-MEL-28 = experiment: Growth inhibition of human SK-MEL-28 cells at 10 uM after 7 days by celltiter-glo assay; details: SK-MEL-28, 168 h, read-out: GI
CAKI-1 = experiment: Growth inhibition of human Caki1 cells after 7 days by celltiter-glo assay; details: CAKI-1, 168 h
TK-10 = experiment: Growth inhibition of human TK10 cells at 10 uM after 7 days by celltiter-glo assay; details: TK-10, 168 h, read-out: GI
ACHN [5] = experiment: Growth inhibition of human ACHN cells at 10 uM after 7 days by celltiter-glo assay; details: 168 h, read-out: GI
[6] = Ratio of compound GI50 to chlorambucil GI50 for human H1299 cells
T47D = experiment: Growth inhibition of human T47D cells at 10 uM after 7 days by celltiter-glo assay; details: 168 h, read-out: GI
MCF7 = experiment: Growth inhibition of human MCF7 cells at 10 uM after 7 days by celltiter-glo assay; details: MCF7, 168 h, read-out: GI
OVCAR-4 [7] = experiment: Growth inhibition of human OVCAR4 cells after 7 days by celltiter-glo assay; details: OVCAR-4, 168 h
OVCAR-5 = experiment: Growth inhibition of human OVCAR5 cells at 10 uM after 7 days by celltiter-glo assay; details: OVCAR-5, 168 h, read-out: GI
SF-268 [8] = experiment: Growth inhibition of human SF268 cells after 7 days by celltiter-glo assay; details: SF-268, 168 h
HCT-15 [9] = experiment: Growth inhibition of human HCT15 cells at 10 uM after 7 days by celltiter-glo assay; details: HCT-15, 168 h, read-out: GI
IGROV-1 = experiment: Growth inhibition of human IGROV1 cells after 7 days by celltiter-glo assay; details: IGROV-1, 168 h

Compound: CON(CCCc1ccc(N(CCCl)CCCl)cc1)C1OC[C@@H](O)[C@@H]1O (stereo not given in full)
- GI50 (PC-3): 11.7 µM
- inhibition of growth at 10 µM (NCI/ADR-RES): 61.5%
- GI50 (Malme-3M): 20.2 µM
- GI50 (M14): 9.25 µM
- GI50 (MOLT-4): 1.22 µM
- GI50 (DU-145): 1.8 µM
- GI50 (LOX IMVI): 8.61 µM
- GI50 (MDA-MB-231): 1.39 µM
- inhibition of growth at 10 µM (OVCAR-4 [1]): 77.2%
- RatioGI50 (HCT-15 [2]): 15
- inhibition of growth at 10 µM (MDA-MB-468): 43.9%
- inhibition of growth at 10 µM (SF-268 [3]): 67.8%
- GI50 (SF-295): 6.47 µM
- GI50 (ACHN [4]): 4.34 µM
- inhibition of growth at 10 µM (OVCAR-8): 68.1%
- GI50 (SF-539): 8.8 µM
- inhibition of growth at 10 µM (NCI-H460): 35.8%
- inhibition of growth at 10 µM (KM12): 97.6%
- inhibition of growth at 10 µM (SK-MEL-28): 117%
- GI50 (CAKI-1): 11.5 µM
- inhibition of growth at 10 µM (TK-10): 97.2%
- inhibition of growth at 10 µM (ACHN [5]): 14.3%
- RatioGI50 [6]: 13
- inhibition of growth at 10 µM (T47D): 48%
- inhibition of growth at 10 µM (MCF7): 32.4%
- GI50 (OVCAR-4 [7]): 29.2 µM
- inhibition of growth at 10 µM (OVCAR-5): 111%
- GI50 (SF-268 [8]): 1.5 µM
- inhibition of growth at 10 µM (HCT-15 [9]): 77.1%
- GI50 (IGROV-1): 1.21 µM
